Assay results published in patent US20160113921A1, “COMBINATION THERAPY COMPRISING OXAZOLIDINONE-QUINOLONES FOR USE IN TREATING BACTERIAL INFECTIONS” (MORPHOCHEM AKTIENGESELLSCHAFT FÜR KOMBINATORISCHE CHEMIE, priority 2013, published 2016).
Converted amounts (≈) assume the structure as drawn. Where two headings read alike, the source gives them in different places.

Tests used:
Format in all cases: cell-based
[1] = tested on: E. faecalis ATCC 29212; assay: MIC, broth microdilution (CLSI), CAMHB; conditions: Enterococcus faecalis; monosubstance; Ef ATCC29212; read-out: MIC
Method: (§1) MIC-testing was done immediately after preparation of the dilutions. All tests were done in duplicate and repeated once on a separate occasion.
(§2) 1 mL of the bacterial suspension was transferred into a tube containing 10 mL CAMHB and was vortexed thoroughly. (S. pneumoniae 1 mL in 10 mL CAMHB+5% lysed horse blood). Columns 1-15 of the 96-well plate were inoculated with 5 μL of this suspension (1-15=antibacterial solution, 16=sterile medium without test item).
(§3) Turbidity was read visually with a mirror.

[2] = tested on: E. faecalis V583 (VanB); assay: MIC, broth microdilution (CLSI), CAMHB; conditions: Enterococcus faecalis; monosubstance; Ef V583; read-out: MIC
Method: as §1, §2, §3

[3] = tested on: E. faecium DSMZ 2146; assay: MIC, broth microdilution (CLSI), CAMHB; conditions: Enterococcus faecium
Method: as §1, §2, §3

[4] = tested on: E. faecium UW 3695 (linezolid and quinolone-resistant); assay: MIC, broth microdilution (CLSI), CAMHB; conditions: Enterococcus faecium; monosubstance; Efc UW3695; read-out: MIC
Method: as §1, §2, §3

[5] = tested on: S. aureus ATCC 29213; assay: MIC, broth microdilution (CLSI), CAMHB; conditions: Staphylococcus aureus; monosubstance; Sa ATCC29213; read-out: MIC
Method: as §1, §2, §3

[6] = tested on: S. aureus ATCC 33593 (MRSA); assay: MIC, broth microdilution (CLSI), CAMHB; conditions: Staphylococcus aureus; monosubstance; Sa ATCC33593; read-out: MIC
Method: as §1, §2, §3

[7] = tested on: S. aureus NRS-119 (MRSA, linezolid- and quinolone-resistant); assay: MIC, broth microdilution (CLSI), CAMHB; conditions: Staphylococcus aureus
Method: as §1, §2, §3

[8] = tested on: S. aureus Visa Mu 50 (MRSA, vancomycin intermediate susceptible); assay: MIC, broth microdilution (CLSI), CAMHB; conditions: Staphylococcus aureus; monosubstance; Sa VisaMu50; read-out: MIC
Method: as §1, §2, §3

[9] = tested on: S. pneumoniae ATCC 33400; assay: MIC, broth microdilution (CLSI), CAMHB; conditions: Streptococcus pneumoniae; monosubstance; Spn ATCC33400; read-out: MIC
Method: as §1, §2, §3

[10] = tested on: S. pneumoniae BAY 19397 (penicillin-, macrolide-, quinolone-resistant); assay: MIC, broth microdilution (CLSI), CAMHB; conditions: Streptococcus pneumoniae, monosubstance; Spn 19397; read-out: MIC
Method: as §1, §2, §3

[11] = tested on: S. aureus DSM 11823, clone 16 (MSSA, quinolone-resistant); assay: microbe, parasite or virus in culture; conditions: Staphylococcus aureus
Method: as §1, §2, §3

[12] = tested on: E. cloacae ATCC 13047; assay: MIC, broth microdilution (CLSI), CAMHB; conditions: Enterobacter cloacae; monosubstance; Ecl ATCC13047; read-out: MIC
Method: as §1, §2, §3

[13] = tested on: E. cloacae NRZ-00239 (VIM-1); assay: MIC, broth microdilution (CLSI), CAMHB; conditions: Enterobacter cloacae; monosubstance; Ecl NRZ00239; read-out: MIC
Method: as §1, §2, §3

[14] = tested on: E. coli ATCC 25922; assay: MIC, broth microdilution (CLSI), CAMHB; conditions: Escherichia coli; monosubstance; Ec ATCC25922; read-out: MIC
Method: as §1, §2, §3

[15] = tested on: E. coli GNS-2601 (ESBL CTX-M-15); assay: MIC, broth microdilution (CLSI), CAMHB; conditions: Escherichia coli
Method: as §1, §2, §3

[16] = tested on: E. coli NRZ-00302 (metallo β-lactamase NDM-1); assay: MIC, broth microdilution (CLSI), CAMHB; conditions: Escherichia coli
Method: as §1, §2, §3

[17] = tested on: E. coli NRZ-00401 (metallo β-lactamase VIM-1); assay: MIC, broth microdilution (CLSI), CAMHB; conditions: Escherichia coli; monosubstance; Ec NRZ00401; read-out: MIC
Method: as §1, §2, §3

[18] = tested on: K. pneumoniae ATCC 13883; assay: MIC, broth microdilution (CLSI), CAMHB; conditions: Klebsiella pneumoniae; monosubstance; Kp ATCC13883; read-out: MIC
Method: as §1, §2, §3

[19] = tested on: K. pneumoniae NRZ-00002 (OXA-48); assay: MIC, broth microdilution (CLSI), CAMHB; conditions: Klebsiella pneumoniae; monosubstance; Kp NRZ00002; read-out: MIC
Method: as §1, §2, §3

[20] = tested on: K. pneumoniae NRZ-00103 (KPC-2); assay: MIC, broth microdilution (CLSI), CAMHB; conditions: Klebsiella pneumoniae
Method: as §1, §2, §3

[21] = tested on: K. pneumoniae NRZ-00535 (VIM-1); assay: MIC, broth microdilution (CLSI), CAMHB; conditions: Klebsiella pneumoniae
Method: as §1, §2, §3

[22] = tested on: P. aeruginosa ATCC 10145; assay: MIC, broth microdilution (CLSI), CAMHB; conditions: Pseudomonas aeruginosa; monosubstance; Pa ATCC10145; read-out: MIC
Method: as §1, §2, §3

[23] = tested on: P. aeruginosa NRZ-00425 (VIM-1); assay: MIC, broth microdilution (CLSI), CAMHB; conditions: Pseudomonas aeruginosa
Method: as §1, §2, §3

[24] = tested on: P. mirabilis ATCC 9240; assay: MIC, broth microdilution (CLSI), CAMHB; conditions: Proteus mirabilis; monosubstance; Pm ATCC9240; read-out: MIC
Method: as §1, §2, §3

[25] = tested on: P. mirabilis NRZ-00185 (AmpC, type CMY-2); assay: MIC, broth microdilution (CLSI), CAMHB; conditions: Proteus mirabilis
Method: as §1, §2, §3

[26] = tested on: Gram-negative test strains (Enterobacteriaceae, non-fermenters); assay: MIC testing, statements on the Gram-negative strain panel
Excerpt: as §1

Row | SMILES | MIC [1] | MIC [2] | MIC [4] | MIC [5] | MIC [6] | MIC [8] | MIC [9] | MIC [10] | MIC [11] | MIC [12] | MIC [13] | MIC [14] | MIC [17] | MIC [18] | MIC [19] | MIC [22] | MIC [24] | further results
1 | CC1(C)S[C@@H]2[C@H](NC(=O)[C@H](N)c3ccccc3)C(=O)N2[C@H]1C(=O)O [ampicillin] | 1 µg/mL (≈ 2.86 µM) | 0.5 µg/mL (≈ 1.43 µM) | 32 µg/mL (≈ 91.6 µM) | 0.5 µg/mL (≈ 1.43 µM) | 64 µg/mL (≈ 183 µM) | 256 µg/mL (≈ 733 µM) | 0.0075 µg/mL (≈ 0.0215 µM) | 1 µg/mL (≈ 2.86 µM) | 0.007 µg/mL (≈ 0.02 µM) |  |  |  |  |  |  |  |  | MIC ([3]; DSMZ2146): 128 µg/mL (≈ 366 µM); MIC [7]: 128 µg/mL (≈ 366 µM)
2 | CC(C)(O/N=C(\C(=O)N[C@@H]1C(=O)N2C(C(=O)[O-])=C(C[n+]3ccccc3)CS[C@H]12)c1csc(N)n1)C(=O)O [ceftazidime] |  |  |  |  |  |  |  |  |  | 2 µg/mL (≈ 3.66 µM) | 4 µg/mL (≈ 7.32 µM) | 0.03 µg/mL (≈ 0.0549 µM) | 32 µg/mL (≈ 58.5 µM) | 0.25 µg/mL (≈ 0.457 µM) | 64 µg/mL (≈ 117 µM) | 2 µg/mL (≈ 3.66 µM) | 0.5 µg/mL (≈ 0.915 µM) | MIC [15]: 128 µg/mL (≈ 234 µM); MIC [16]: > 256 µg/mL; MIC [20]: > 256 µg/mL; MIC [21]: > 256 µg/mL; MIC ([23]; monosubstance, Pa NRZ00425, read-out: MIC): 32 µg/mL (≈ 58.5 µM); MIC [25]: 128 µg/mL (≈ 234 µM); MIC ([26]; E. coli, K. pneumoniae, and P. mirabilis wild type strains, read-out: MIC (inhibitory concentration)): < 0.5 µg/mL; MIC ([26]; remainder / remaining / all other test strains, as worded for each agent, read-out: MIC): > 2 µg/mL
3 | CO/N=C(\C(=O)N[C@@H]1C(=O)N2C(C(=O)O)=C(CSc3nc(=O)c(=O)[nH]n3C)CS[C@H]12)c1csc(N)n1 [ceftriaxone] | 0.5 µg/mL (≈ 0.902 µM) | 0.5 µg/mL (≈ 0.902 µM) | 32 µg/mL (≈ 57.7 µM) | 4 µg/mL (≈ 7.21 µM) | > 256 µg/mL | 16 µg/mL (≈ 28.9 µM) | 0.0075 µg/mL (≈ 0.0135 µM) | 4 µg/mL (≈ 7.21 µM) | 4 µg/mL (≈ 7.21 µM) |  |  |  |  |  |  |  |  | MIC ([3]; monosubstance, Efc DSMZ2146, read-out: MIC): 0.5 µg/mL (≈ 0.902 µM); MIC ([7]; monosubstance, Sa NRS119, read-out: MIC): > 256 µg/mL
4 | C[C@@H](O)[C@H]1C(=O)N2C(C(=O)O)=C(SCCN=CN)C[C@H]12 [imipenem] |  |  |  |  |  |  |  |  |  | 0.25 µg/mL (≈ 0.835 µM) | 0.25 µg/mL (≈ 0.835 µM) | 0.03 µg/mL (≈ 0.1 µM) | 4 µg/mL (≈ 13.4 µM) | 0.25 µg/mL (≈ 0.835 µM) | 2 µg/mL (≈ 6.68 µM) | 0.5 µg/mL (≈ 1.67 µM) | 1 µg/mL (≈ 3.34 µM) | MIC ([15]; monosubstance, Ec GNS2601, read-out: MIC): 0.03 µg/mL (≈ 0.1 µM); MIC ([16]; monosubstance, Ec NRZ00302, read-out: MIC): 4 µg/mL (≈ 13.4 µM); MIC ([20]; monosubstance, Kp NRZ00103, read-out: MIC): 32 µg/mL (≈ 107 µM); MIC ([21]; monosubstance, Kp NRZ00535, read-out: MIC): 8 µg/mL (≈ 26.7 µM); MIC [23]: 128 µg/mL (≈ 428 µM); MIC ([25]; monosubstance, Pm NRZ00185, read-out: MIC): 1 µg/mL (≈ 3.34 µM); MIC ([26]; all the test strains except P. aeruginosa NRZ-00185 and K. pneumoniae NRZ-00103, read-out: MIC (inhibitory concentration)): < 8 µg/mL
